Laboratory results published in ChEMBL document CHEMBL1134487, “Design, synthesis, and biological evaluation of analogues of the antitumor agent, 2-(4-[(7-chloro-2-quinoxalinyl)oxy]phenoxy)propionic acid (XK469)” (2001).

Legend:
[1] = system: Mus musculus; test: Cytotoxicity against sc transplanted Mam-17/0 tumors of mouse origin, activity expressed as %body wt. loss at the dose of 620 mg/kg, iv; type: functional
[2] = system: Mus musculus; test: Cytotoxicity against sc transplanted L1210 tumors of mouse origin, activity expressed as %body wt. loss at the dose of 332 mg/kg, iv; type: functional
[3] = system: Mus musculus; test: Cytotoxicity against sc transplanted Mam-17/Adr tumors of mouse origin, activity expressed as %body wt. loss at the dose of 620 mg/kg, iv; type: functional
[4] = system: Mus musculus; test: Cytotoxicity against sc transplanted Mam-16/C tumors of mouse origin, activity expressed as %body wt loss at the dose of 525 mg/kg, iv; type: functional
[5] = system: Mus musculus; test: Cytotoxicity against sc transplanted colon-51 tumors of mouse origin, activity expressed as %body wt. loss at the dose of 980 mg/kg, po; type: functional
[6] = system: Mus musculus; test: In vivo activity tested against C3H mice bearing panc-03 murine tumor measured as log Kill value was based on tumors that grew at 328 mg/kg (po); type: functional, organism-based; design: dose 328 mg/kg
[7] = system: Mus musculus; test: In vivo activity tested against C3H mice bearing mammary adenocarcinoma -17/ADR tumor measured as % treated/control calculated at 620 mg/kg (po); type: functional
[8] = system: Mus musculus; test: Cytotoxicity against sc transplanted Mam-16/C/Taxol tumors of mouse origin, activity expressed as %body wt. loss at the dose of 480 mg/kg, iv; type: functional
[9] = system: Mus musculus; test: Cytotoxicity against sc transplanted DMS273 sm cell tumors of mouse and human origin, activity expressed as cures at the dose of 175 mg/kg, iv; 0/6 cures; type: functional
[10] = system: Mus musculus; test: Cytotoxicity against sc transplanted colon-51 tumors of mouse origin, activity expressed as log10 Kill at the dose of 980 mg/kg, po; type: functional, organism-based; design: dose 980 mg/kg
[11] = system: Mus musculus; test: Cytotoxicity against iv transplanted L1210 tumors of mouse origin, activity expressed as cures at the dose of 300 mg/kg, iv; 0/5 cures; type: functional
[12] = system: Mus musculus; test: Cytotoxicity against sc transplanted L1210 tumors of mouse origin, activity expressed as T/C(%) at the dose of 332 mg/kg, iv; type: functional
[13] = system: Mus musculus; test: Cytotoxicity against sc transplanted colon-26 tumors of mouse origin, activity expressed as cures at the dose of 300 mg/kg, iv; 0/5 cures; type: functional
[14] = system: Mus musculus; test: Cytotoxicity against sc transplanted Mam-16/C/Adr tumors of mouse origin, activity expressed as […] at the dose of 400 mg/kg, iv; type: functional, organism-based; design: dose 400 mg/kg
[15] = system: Mus musculus; test: Cytotoxicity against sc transplanted colon-26 tumors of mouse origin, activity expressed as T/C(%) at the dose of 300 mg/kg, iv; type: functional
[16] = system: Mus musculus; test: Cytotoxicity against sc transplanted Mam-17/0 tumors of mouse origin, activity expressed as cures at the dose of 620 mg/kg, iv;p 0/5 cures; type: functional
[17] = system: Mus musculus; test: Cytotoxicity against sc transplanted L1210 tumors of mouse origin, activity expressed as cures at the dose of 332 mg/kg, iv; 0/5 cures; type: functional
[18] = system: Mus musculus; test: Cytotoxicity against iv transplanted AML1498 tumors of mouse origin, activity expressed as log10 Kill at the dose of 165 mg/kg, iv; type: functional, organism-based; design: dose 165 mg/kg
[19] = system: Mus musculus; test: Cytotoxicity against sc transplanted Mam-17/0 tumors of mouse origin, activity expressed as T/C(%) at the dose of 620 mg/kg, iv; type: functional
[20] = system: Mus musculus; test: Cytotoxicity against sc transplanted DMS273 sm cell tumors of mouse and human origin, activity expressed as %body wt. loss at the dose of 175 mg/kg, iv; type: functional
[21] = system: Mus musculus; test: Cytotoxicity against sc transplanted Panc-02 tumors of mouse origin, activity expressed as log10 Kill at the dose of 600 mg/kg, iv; type: functional, organism-based; design: dose 600 mg/kg
[22] = system: Mus musculus; test: Cytotoxicity against sc transplanted Mam-16/C/Taxol tumors of mouse origin, activity expressed as cures at the dose of 480 mg/kg, iv; 0/5 cures; type: functional
[23] = system: Mus musculus; test: Cytotoxicity against sc transplanted Mam-16/C/Taxol tumors of mouse origin, activity expressed as %T/C at the dose of 480 mg/kg, iv; type: functional
[24] = system: Mus musculus; test: In vivo activity tested against C3H mice bearing mammary adenocarcinoma -17/ADR tumor measured as body weight loss at 620 mg/kg (po); type: functional
[25] = system: Mus musculus; test: In vivo activity tested against C3H mice bearing panc-03 murine tumor, measured as cures at 328 mg/kg (po); 4/6 cures; type: functional
[26] = system: Mus musculus; test: In vivo activity tested against C3H mice bearing mammary adenocarcinoma -17/ADR tumor measured as activity rating at 620 mg/kg (po); type: functional
[27] = system: Mus musculus; test: Cytotoxicity against sc transplanted Panc-03 tumors of mouse […] origin, activity expressed as %body wt loss at the dose of 328 mg/kg, po; type: functional
[28] = system: Mus musculus; test: Cytotoxicity against sc transplanted DMS273 sm cell tumors of mouse and human origin, activity expressed as log10 Kill at the dose of 175 mg/kg, iv; type: functional, organism-based; design: dose 175 mg/kg
[29] = system: Mus musculus; test: Cytotoxicity against sc transplanted colon-38 tumors of mouse origin, activity expressed as %T/C value at the dose of 546 mg/kg, iv; type: functional
[30] = system: Mus musculus; test: Cytotoxicity against sc transplanted DMS273 sm cell tumors of mouse and human origin, activity expressed as T/C(%) at the dose of 175 mg/kg, iv; type: functional
[31] = system: Mus musculus; test: Cytotoxicity against sc transplanted Mam-16/C/Adr tumors of mouse origin, activity expressed as %body wt. loss at the dose of 400 mg/kg, iv; type: functional
[32] = system: Mus musculus; test: Cytotoxicity against sc transplanted Panc-03 tumors of mouse origin, activity expressed as %T/C at the dose of 328 mg/kg, po; type: functional
[33] = system: Mus musculus; test: Cytotoxicity against sc transplanted Mam-16/C tumors of mouse origin, activity expressed as cures at the dose of 525 mg/kg, iv; 1/5 cures; type: functional
[34] = system: Mus musculus; test: Cytotoxicity against sc transplanted B-16 melanoma tumors of mouse origin, activity expressed as log10 Kill at the dose of 300 mg/kg, iv; type: functional, organism-based; design: dose 300 mg/kg
[35] = system: Mus musculus; test: Cytotoxicity against sc transplanted colon-51 tumors of mouse origin, activity expressed as T/C(%) at the dose of 980 mg/kg, po; type: functional
[36] = system: Mus musculus; test: Cytotoxicity against sc transplanted Squam-lung-LC12 tumors of mouse, activity expressed as %body wt loss at the dose of 400 mg/kg, iv; type: functional
[37] = system: Mus musculus; test: In vivo activity tested against C3H mice bearing mammary adenocarcinoma -17/ADR tumor measured as log Kill value was based on tumors that grew at 620 mg/kg (po); type: functional, organism-based; design: dose 620 mg/kg
[38] = system: Mus musculus; test: Cytotoxicity against sc transplanted B-16 melanoma tumors of mouse origin, activity expressed as T/C(%) at the dose of 300 mg/kg, iv; type: functional
[39] = system: Mus musculus; test: Cytotoxicity against iv transplanted AML1498 tumors of mouse origin, activity expressed as cures at the dose of 165 mg/kg, iv; 0/5 cures; type: functional
[40] = system: Mus musculus; test: Cytotoxicity against iv transplanted L1210 tumors of mouse origin, activity expressed as log10 Kill at the dose of 300 mg/kg, iv; type: functional, organism-based; design: dose 300 mg/kg
[41] = system: Mus musculus; test: Cytotoxicity against sc transplanted colon-26 tumors of mouse origin, activity expressed as %body wt. loss at the dose of 300 mg/kg, iv; type: functional

## CC(Oc1ccc(Oc2cnc3ccc(Cl)cc3n2)cc1)C(=O)O (stereo unspecified)
[1]
  Body weight loss: -12%
[2]
  Body weight loss: -16%
[3]
  Body weight loss: -4%
[4]
  Body weight loss: -9%
[5]
  Body weight loss: -5%
[6]
  Log kill: 2.1
[7]
  T/C: 2%
[8]
  Body weight loss: -11%
[9]
  Cures: 0
[10]
  Log kill: 2.7
[11]
  Cures: 0
[12]
  T/C: 30%
[13]
  Cures: 0
[14]
  Log kill: 4.1
[15]
  T/C: 14%
[16]
  Cures: 0
[17]
  Cures: 0
[18]
  Log kill: 2
[19]
  T/C: 10%
[20]
  Body weight loss: -8%
[21]
  Log kill: 2.8
[22]
  Cures: 0
[23]
  T/C: 14%
[24]
  Body weight loss: -4%
[25]
  Cures: 4
[26]
  Activity rating: >2.8
[27]
  Body weight loss: -4%
[28]
  Log kill: 1.6
[29]
  T/C: 0%
[30]
  T/C: 14%
[31]
  Body weight loss: -9%
[32]
  T/C: 0%
[33]
  Cures: 1
[34]
  Log kill: 2.6
[35]
  T/C: 0%
[36]
  Body weight loss: -3%
[37]
  Log kill: 3.9
[38]
  T/C: 4%
[39]
  Cures: 0
[40]
  Log kill: 6.4
[41]
  Body weight loss: -12%
